Results as given in paper PMC13198257, “An aerosolized dual-action autotaxin inhibitor-PPARγ agonist for the treatment of pulmonary fibrosis” (Cell Reports Medicine, 2026).

Test system: lung gene expression
Assay: RNA sequencing of lung tissue (BLM/EL244 vs BLM)
Assay type: in vivo, mouse
Protocol: RNA quality was assessed using an Agilent TapeStation 4150 with the High Sensitivity […] ScreenTape (Agilent), according to the manufacturer’s protocols. For library preparation, the QuantSeq 3’mRNA-Seq Library Prep Kit (Lexogen) was used according to manufacturer’s instructions. Briefly, 500 ng of RNA from each sample was used for first-strand synthesis, followed by RNA template removal, and second-strand synthesis initiated by random primers. In-line barcodes were introduced at this step, and this was followed by magnetic bead-based purification. The resulting libraries were amplified for 15 cycles and re-purified, with quantity and quality assessed on a Qubit 4 Fluorometer with the Invitrogen Qubit dsDNA HS Assay and an Agilent Tapestation 4150 with the High Sensitivity D1000 assay kit, respectively. The quantified libraries were pooled equimolarly; 50ng of total library mix was used for Adapter Conversion PCR Amplification using the Universal Library Conversion Kit (App-A), Version: V1.0 (MGI Tech Co., Ltd.), according to the manufacturer’s instructions.
The quantity and quality of the purified adapter conversion PCR (AC-PCR) product were evaluated on a Qubit 4 Fluorometer with the Invitrogen Qubit dsDNA HS Assay and on an Agilent Tapestation 4150 with the High Sensitivity D1000 assay kit, respectively. This was followed by DNA denaturation, Single-Strand Circularisation, Enzymatic Digestion, Enzymatic Digestion Product Cleanup and Quality Control steps on 1 pmol of AC-PCR product, according to the Universal Library Conversion Kit (App-A) User Manual (Version: A3).
Finally, 60 fmol of ssCirDNA were used for DNB preparation and sequencing on a DNBSEQ-G400 platform at the BSRC Alexander Fleming Genomics Facility, using a G400 App-A FCS SE100 High-throughput Sequencing Set (MGI Tech Co., Ltd.), according to the manufacturer’s instructions.
Alignment of the FASTQ files was performed against the mouse genome build mm10 using a custom Bash script.[143] Read counting on the 3′ UTRs and differential expression analysis were conducted using the metaseqR2 bioconductor package.[144] Genes corresponding to the following biotypes were excluded: polymorphic_pseudogene, processed_transcript, pseudogene, IG_V_pseudogene, misc_RNA, IG_C_gene, IG_J_gene, IG_D_gene, IG_LV_gene, TR_V_gene, TR_V_pseudogene, TEC, and processed_pseudogene. Gene counts were normalized with DESEQ[145] through metaseqR2. Genes with more than 10 counts in at least 50% of the samples were kept for further processing. For differential expression analysis, the PANDORA algorithm[146] was used to estimate a meta p-value integrating the results from the DESEQ, DESEQ2,[147] edgeR,[148] limma,[149] NBPSeq,[150] and NOISeq[151] algorithms. All additional parameters were set to default values.
Pathway enrichment analysis was performed for the Gene Ontology Biological process (BP) and Molecular Function (MF) terms through GeneCodis 4.[152] The volcano plots, scatterplots, Venn diagrams, and dot plots were generated using the ggplot2 Bioconductor package.

SMILES: O=C1NC(=O)C(Cc2ccc(OCCC3CCN(C(=O)OCc4cc(Cl)cc(Cl)c4)CC3)cc2)S1 (stereo not drawn) [EL244, 3,5-dichlorobenzyl 4-(2-(4-((2,4-dioxothiazolidin-5-yl)methyl)phenoxy)ethyl)piperidine-1-carboxylate]
- Myh6 log2 nFC BLM/EL244 vs BLM (DEG Myh6, nFC: normalised fold change): 2.62
- Myh7 log2 nFC BLM/EL244 vs BLM (DEG Myh7, nFC: normalised fold change): 2.22
- Myl4 log2 nFC BLM/EL244 vs BLM (DEG Myl4, nFC: normalised fold change): 1.94
- Myl7 log2 nFC BLM/EL244 vs BLM (DEG Myl7, nFC: normalised fold change): 1.90
- Mylk3 log2 nFC BLM/EL244 vs BLM (DEG Mylk3, nFC: normalised fold change): 2.03
- Myom2 log2 nFC BLM/EL244 vs BLM (DEG Myom2, nFC: normalised fold change): 1.87
- log2 nFC BLM/EL244 vs BLM (DEG Ncapd2): -1.29
- Ndrg2 log2 nFC BLM/EL244 vs BLM (DEG Ndrg2, nFC: normalised fold change): 0.88
- Nek5 log2 nFC BLM/EL244 vs BLM (DEG Nek5, nFC: normalised fold change): 0.81
- Ngp log2 nFC BLM/EL244 vs BLM (DEG Ngp, nFC: normalised fold change): 2.72
- Nhlrc1 log2 nFC BLM/EL244 vs BLM (DEG Nhlrc1, nFC: normalised fold change): 1.34
- log2 nFC BLM/EL244 vs BLM (DEG Nnat): -1.34
- Nova2 log2 nFC BLM/EL244 vs BLM (DEG Nova2, nFC: normalised fold change): 0.90
- Npr3 log2 nFC BLM/EL244 vs BLM (DEG Npr3, nFC: normalised fold change): 1.53
- Nr1d1 log2 nFC BLM/EL244 vs BLM (DEG Nr1d1, nFC: normalised fold change): 0.84
- Nr4a3 log2 nFC BLM/EL244 vs BLM (DEG Nr4a3, nFC: normalised fold change): 1.63
- log2 nFC BLM/EL244 vs BLM (DEG Nrcam): -1.26
- log2 nFC BLM/EL244 vs BLM (DEG Nrep): -1.26
- Nrgn log2 nFC BLM/EL244 vs BLM (DEG Nrgn, nFC: normalised fold change): 1.04
- Nrn1 log2 nFC BLM/EL244 vs BLM (DEG Nrn1, nFC: normalised fold change): 1.84
- Nrxn2 log2 nFC BLM/EL244 vs BLM (DEG Nrxn2, nFC: normalised fold change): 0.88
- Ogn log2 nFC BLM/EL244 vs BLM (DEG Ogn, nFC: normalised fold change): 0.86
- log2 nFC BLM/EL244 vs BLM (DEG Ooep): -1.51
- Osgin1 log2 nFC BLM/EL244 vs BLM (DEG Osgin1, nFC: normalised fold change): 0.74
- Pcolce2 log2 nFC BLM/EL244 vs BLM (DEG Pcolce2, nFC: normalised fold change): 0.98
- Pcp4l1 log2 nFC BLM/EL244 vs BLM (DEG Pcp4l1, nFC: normalised fold change): 0.75
- log2 nFC BLM/EL244 vs BLM (DEG Pdgfc): -1.47
- log2 nFC BLM/EL244 vs BLM (DEG Pdlim4): -1.24
- Phactr1 log2 nFC BLM/EL244 vs BLM (DEG Phactr1, nFC: normalised fold change): 0.74
- Phf1 log2 nFC BLM/EL244 vs BLM (DEG Phf1, nFC: normalised fold change): 0.75
- Phf24 log2 nFC BLM/EL244 vs BLM (DEG Phf24, nFC: normalised fold change): 1.57
- log2 nFC BLM/EL244 vs BLM (DEG Pla1a): -1.42
- Pla2g1b log2 nFC BLM/EL244 vs BLM (DEG Pla2g1b, nFC: normalised fold change): 0.79
- log2 nFC BLM/EL244 vs BLM (DEG Plk4): -1.31
- Pln log2 nFC BLM/EL244 vs BLM (DEG Pln, nFC: normalised fold change): 2.30
- Pmvk log2 nFC BLM/EL244 vs BLM (DEG Pmvk, nFC: normalised fold change): 1.09
- log2 nFC BLM/EL244 vs BLM (DEG Pole): -1.58
- log2 nFC BLM/EL244 vs BLM (DEG Pole2): -1.50
- Ppbp log2 nFC BLM/EL244 vs BLM (DEG Ppbp, nFC: normalised fold change): 1.09
- Ppl log2 nFC BLM/EL244 vs BLM (DEG Ppl, nFC: normalised fold change): 0.87
- Ppp4r4 log2 nFC BLM/EL244 vs BLM (DEG Ppp4r4, nFC: normalised fold change): 1.26
- Pram1 log2 nFC BLM/EL244 vs BLM (DEG Pram1, nFC: normalised fold change): 1.64
- Prf1 log2 nFC BLM/EL244 vs BLM (DEG Prf1, nFC: normalised fold change): 1.34
- Prmt8 log2 nFC BLM/EL244 vs BLM (DEG Prmt8, nFC: normalised fold change): 1.27
- Prob1 log2 nFC BLM/EL244 vs BLM (DEG Prob1, nFC: normalised fold change): 0.76
- log2 nFC BLM/EL244 vs BLM (DEG Psrc1): -1.26
- Ptgfr log2 nFC BLM/EL244 vs BLM (DEG Ptgfr, nFC: normalised fold change): 0.93
- log2 nFC BLM/EL244 vs BLM (DEG Pth1r): -1.40
- Pwwp3b log2 nFC BLM/EL244 vs BLM (DEG Pwwp3b, nFC: normalised fold change): 1.22
- Rab44 log2 nFC BLM/EL244 vs BLM (DEG Rab44, nFC: normalised fold change): 1.61
- Rapgef5 log2 nFC BLM/EL244 vs BLM (DEG Rapgef5, nFC: normalised fold change): 0.88
- Rassf10 log2 nFC BLM/EL244 vs BLM (DEG Rassf10, nFC: normalised fold change): 1.19
- Rbfox3 log2 nFC BLM/EL244 vs BLM (DEG Rbfox3, nFC: normalised fold change): 1.26
- Rbm24 log2 nFC BLM/EL244 vs BLM (DEG Rbm24, nFC: normalised fold change): 1.20
- Rdh12 log2 nFC BLM/EL244 vs BLM (DEG Rdh12, nFC: normalised fold change): 1.74
- Retnlg log2 nFC BLM/EL244 vs BLM (DEG Retnlg, nFC: normalised fold change): 1.46
- Rgs9 log2 nFC BLM/EL244 vs BLM (DEG Rgs9, nFC: normalised fold change): 1.01
